Measured values from patent US6534650B2, “Benzisoxazole and 4-amidino-3-hydroxyphenyl chemical intermediates” (Eli Lilly and Company, priority 1996, dated 2003).
Structures can show the parent of a compound that is named as a salt. Where two headings read alike, the source gives them in different places.

Assays:
[1] = tested on: thrombin time (TT) in test plasma; experiment: Anticoagulation determination: thrombin time (TT) in plasma; format: biochemical; conditions: compound added to plasma; linear extrapolation to doubling of the clotting time
Procedure: Dog plasma and rat plasma are obtained from conscious mixed-breed hounds (either sex, hazelton-LRE, Kalamazoo, Mich., U.S.A.) or from anesthetized male Sprague-Dawley rats (Harlan Sprague-Dawley, Inc., Indianapolis, Ind., U.S.A.) by venipuncture into 3.8 percent citrate. Fibrinogen is prepared from in-date ACD human blood as the fraction I-2 according to previous procedures and specifications. Smith, Biochem. J., 185, 1-11 (1980); and Smith, et al., Biochemistry, 11, 2958-2967 (1972). Human fibrinogen is also purchased as 98 percent pure/plasmin free from American Diagnostica, Greenwich, Conn. Coagulation reagents ACTIN, Thromboplastin, and Human plasma are from Baxter Healthcare Corp., Dade Division, Miami, Fla. Bovine thrombin from Parke-Davis (Detroit, Mich.) is used for coagulation assays in plasma.
Coagulation assay procedures are as previously described. Smith, et al., Thrombosis Research, 50, 163-174 (1988). A CoAScreener coagulation instrument (American LABor, Inc.) is used for all coagulation assay measurements. The thrombin time (TT) is measured by adding 0.05 ml saline and 0.05 ml thrombin (10 NIH units/ml) to 0.05 ml test plasma. The activated partial thromboplastin time (APTT) is measured by incubation of 0.05 ml test plasma with 0.05 ml Actin reagent for 120 seconds followed by 0.05 ml CaCl2 (0.02M). The prothrombin time (PT) is measured by adding 0.05 ml saline and 0.05 ml Thromboplastin-C reagent to 0.05 ml test plasma. The compounds of formula I are added to human or animal plasma over a wide range of concentrations to determine prolongation effects on the TT, APTT and PT assays. Linear extrapolations are performed to estimate the concentrations required to double the clotting time for each assay. Each of the particularly preferred examples of the invention listed above was determined to have a TT value of less than 50 ng/mL. For example, the respective values (in ng/mL) for TT were 6, 6 and 23 for the compounds of Examples 1, 3 and 5.

[2] = Octanol/water distribution coefficient logD at pH 7.4; format: physicochemical
[3] = target: human thrombin (Homo sapiens, UniProt P00734); experiment: Inhibition of the amidase activity of thrombin (chromogenic substrate), Kass; format: biochemical; conditions: purified human thrombin, N-benzoyl-L-Phe-L-Val-L-Arg-p-nitroanilide substrate, pH 7.4; mean over a range of concentrations
Procedure: The assay is carried out by mixing 50 μl buffer (0.03M Tris, 0.15M NaCl, pH 7.4) with 25 μl of human thrombin solution (purified human thrombin, Enzyme Research Laboratories, South Bend, Ind., at 8 NIH units/ml) and 25 μl of test compound in a solvent (50% aqueous methanol (v:v)). Then 150 μl of an aqueous solution of the chromogenic substate (at 0.25 mg/ml) are added and the rates of hydrolysis of the substrate are measured by monitoring the reactions at 405 nm for the release of p-nitroaniline. Standard curves are constructed by plotting free thrombin concentration against hydrolysis rate. The hydrolysis rates observed with test compounds are then converted to “free thrombin” values in the respective assays by use of the standard curves. The bound thrombin (bound to test compound) is calculated by subtracting the amount of free thrombin observed in each assay from the known initial amount of thrombin used in the assay. The amount of free inhibitor in each assay is calculated by subtracting the number of moles of bound thrombin from the number of moles of added inhibitor (test compound).
The Kass value is the hypothetical equilibrium constant for the reaction between thrombin and the test compound (I). [formula]
Kass is calculated for a range of concentrations of test compounds and the mean value reported in units of liter per mole. […] For example, each of the particularly preferred examples of the invention listed above was determined to have a Kass of at least 100×10^6 L/mole.

Compound | TT (concentration required to double the thrombin clotting time) [1] [ng/mL] | ΔlogD(7.4) ([2]; change versus the corresponding amidino-phenyl compound) [log units] | logD ([2]; octanol/water distribution coefficient, read-out: logD(7.4)) | Kass (hypothetical equilibrium constant for the reaction between thrombin and the test compound) [3] | logD [2] | ΔlogD(7.4) [2] [log units]
N=C(N)c1ccc(CNC(=O)[C@@H]2CCCN2C(=O)[C@@H](CC2CCCCC2)NCC(=O)O)cc1O [Example 3, N-carboxymethyl-D-cyclohexylalanyl-N-[[4-(aminoiminomethyl)-3-hydroxyphenyl]methyl]-L-prolinamide hydrochloride] | 6 | 1.13 | 0.55 | 1,200×10^6 L/mole | – | –
N=C(N)c1ccc(CNC(=O)[C@@H]2CCCN2C(=O)[C@H](N)CC2CCCCC2)cc1O [Example 1, D-cyclohexylalanyl-N-[[4-(aminoiminomethyl)-3-hydroxyphenyl]methyl]-L-prolinamide dihydrochloride] | 6 | – | – | 7.7e+08 L/mol | – | –
CCS(=O)(=O)N[C@H](CC1CCCCC1)C(=O)N1CCC[C@H]1C(=O)NCc1ccc(C(=N)N)c(O)c1 [Example 5, N-ethylsulfonyl-D-cyclohexylalanyl-N-[[4-(aminoiminomethyl)-3-hydroxyphenyl]methyl]-L-prolinamide hydrochloride] | 23 | – | – | 1e+08 L/mol | 1.91 | 5.80
